ChEMBL document CHEMBL5620394, “Synthesis of new antiproliferative 1,3,4-substituted-pyrrolo[3,2-c]quinoline derivatives, biological and in silico insights” (Eur J Med Chem, 2023)
Activity calls are given as the source filed them. The calls are words filed in the database; no cut-off is given here.

What was measured:
SR = experiment: Antiproliferative activity against human SR cells assessed as cell growth at 10 uM incubated for 48 hrs by sulforhodamine B assay relative to control; format: functional; conditions: read-out: Activity
MDA-MB-231 = experiment: Antiproliferative activity against human MDA-MB-231 cells assessed as cell growth at 10 uM incubated for 48 hrs by sulforhodamine B assay relative to control; format: functional; conditions: read-out: Activity
CCRF-CEM = experiment: Antiproliferative activity against human CCRF-CEM cells assessed as cell growth at 10 uM incubated for 48 hrs by sulforhodamine B assay relative to control; format: functional; conditions: read-out: Activity
UACC-62 = experiment: Antiproliferative activity against human UACC-62 cells assessed as cell growth at 10 uM incubated for 48 hrs by sulforhodamine B assay relative to control; format: functional; conditions: read-out: Activity
MCF7 [1] = experiment: Antiproliferative activity against human MCF7 cells assessed as inhibition of cell growth at >50 uM incubated for 4 hrs by MTS assay; format: functional, cell-based
T47D = experiment: Antiproliferative activity against human T47D cells assessed as cell growth at 10 uM incubated for 48 hrs by sulforhodamine B assay relative to control; format: functional; conditions: read-out: Activity
HeLa [2] = experiment: Antiproliferative activity against human HeLa cells assessed as inhibition of cell growth at >50 uM incubated for 4 hrs by MTS assay; format: functional, cell-based
PC-3 = experiment: Antiproliferative activity against human PC-3 cells assessed as cell growth at 10 uM incubated for 48 hrs by sulforhodamine B assay relative to control; format: functional; conditions: read-out: Activity
[3] = Antiproliferative activity against human LA-N-5 cells assessed as inhibition of cell growth incubated for 4 hrs by MTS assay; format: functional
HeLa [4] = experiment: Antiproliferative activity against human HeLa cells assessed as inhibition of cell growth incubated for 4 hrs by MTS assay; format: functional
NCI-H292 = experiment: Antiproliferative activity against human NCI-H292 cells assessed as inhibition of cell growth at >50 uM incubated for 4 hrs by MTS assay; format: functional, cell-based
MCF7 [5] = experiment: Antiproliferative activity against human MCF7 cells assessed as cell growth at 10 uM incubated for 48 hrs by sulforhodamine B assay relative to control; format: functional; conditions: read-out: Activity
CAKI-1 = experiment: Antiproliferative activity against human CAKI-1 cells assessed as cell growth at 10 uM incubated for 48 hrs by sulforhodamine B assay relative to control; format: functional; conditions: read-out: Activity
LA-N-5 [6] = experiment: Antiproliferative activity against human LA-N-5 cells assessed as inhibition of cell growth at 10 uM incubated for 4 hrs by MTS assay; format: functional, cell-based
MOLT-4 = experiment: Antiproliferative activity against human MOLT-4 cells assessed as cell growth at 10 uM incubated for 48 hrs by sulforhodamine B assay relative to control; format: functional; conditions: read-out: Activity
HL-60 = experiment: Antiproliferative activity against human HL-60 cells assessed as cell growth at 10 uM incubated for 48 hrs by sulforhodamine B assay relative to control; format: functional; conditions: read-out: Activity
SNB-75 = experiment: Antiproliferative activity against human SNB-75 cells assessed as cell growth at 10 uM incubated for 48 hrs by sulforhodamine B assay relative to control; format: functional; conditions: read-out: Activity
LA-N-5 [7] = experiment: Antiproliferative activity against human LA-N-5 cells assessed as reduction in cell growth at 10 to 100 uM incubated for 4 hrs by MTS assay; format: functional, cell-based; conditions: dose 10-100 µM
NCI-H226 = experiment: Antiproliferative activity against human NCI-H226 cells assessed as cell growth at 10 uM incubated for 48 hrs by sulforhodamine B assay relative to control; format: functional; conditions: read-out: Activity
MCF7 [8] = experiment: Antiproliferative activity against human MCF7 cells assessed as inhibition of cell growth incubated for 4 hrs by MTS assay; format: functional
786-0 = experiment: Antiproliferative activity against human 786-0 cells assessed as cell growth at 10 uM incubated for 48 hrs by sulforhodamine B assay relative to control; format: functional; conditions: read-out: Activity
UACC-257 = experiment: Antiproliferative activity against human UACC-257 cells assessed as cell growth at 10 uM incubated for 48 hrs by sulforhodamine B assay relative to control; format: functional; conditions: read-out: Activity
UO-31 = experiment: Antiproliferative activity against human UO-31 cells assessed as cell growth at 10 uM incubated for 48 hrs by sulforhodamine B assay relative to control; format: functional; conditions: read-out: Activity
[9] = Antiproliferative activity against human 16HBE14o- cells assessed as inhibition of cell growth incubated for 4 hrs by MTS assay; format: toxicity, cell-based; conditions: read-out: IG50
K562 = experiment: Antiproliferative activity against human K562 cells assessed as cell growth at 10 uM incubated for 48 hrs by sulforhodamine B assay relative to control; format: functional; conditions: read-out: Activity
RPMI-8226 = experiment: Antiproliferative activity against human RPMI-8226 cells assessed as cell growth at 10 uM incubated for 48 hrs by sulforhodamine B assay relative to control; format: functional; conditions: read-out: Activity
HT-29 = experiment: Antiproliferative activity against human HT-29 cells assessed as cell growth at 10 uM incubated for 48 hrs by sulforhodamine B assay relative to control; format: functional; conditions: read-out: Activity
NCI-H522 = experiment: Antiproliferative activity against human NCI-H522 cells assessed as cell growth at 10 uM incubated for 48 hrs by sulforhodamine B assay relative to control; format: functional; conditions: read-out: Activity

SMILES: CCn1c(C)c(C(C)=O)c2c(-c3ccccc3)nc3ccccc3c21
- growth at 10 µM (SR): 91.7%
- growth at 10 µM (MDA-MB-231): 91.1%
- growth at 10 µM (CCRF-CEM): 88.5%
- growth at 10 µM (UACC-62): 88.9%
- Activity (MCF7 [1]): Active
- growth at 10 µM (T47D): 87%
- Activity (HeLa [2]): Active
- growth at 10 µM (PC-3): 80.5%
- IG50 [3]: 1 µM
- IG50 (HeLa [4]): 10 µM
- Activity (NCI-H292): Active
- growth at 10 µM (MCF7 [5]): 93.6%
- growth at 10 µM (CAKI-1): 93.8%
- Activity (LA-N-5 [6]): Active
- growth at 10 µM (MOLT-4): 95.2%
- growth at 10 µM (HL-60): 100%
- growth at 10 µM (SNB-75): 85.1%
- Activity (LA-N-5 [7]): Active
- growth at 10 µM (NCI-H226): 68.3%
- IG50 (MCF7 [8]): 10 µM
- growth at 10 µM (786-0): 98.8%
- growth at 10 µM (UACC-257): 93.3%
- growth at 10 µM (UO-31): 82.5%
- GI50 at 4 h [9]: 10 µM
- growth at 10 µM (K562): 99.2%
- growth at 10 µM (RPMI-8226): 79.6%
- growth at 10 µM (HT-29): 108%
- growth at 10 µM (NCI-H522): 92.6%
